Holding throughout (type): cell-based
Experiment [1] concerns U2932 cells (MYD88 WT). As to the kind of experiment: Cell viability (CTG) with U2932. To be noted: Homo sapiens, MYD88 WT line.
Experiment [2] concerns SU-DHL6 cells (MYD88 WT). As to the kind of experiment: Cell viability (CTG) with SU-DHL6. The conditions noted are these: Homo sapiens, SU-DHL-6; MYD88 WT line.
Experiment [3] concerns OCI-LY10 cells (MYD88 mutant). As to the kind of experiment: Cell viability assay (CellTiter-Glo) with OCI-LY10. To be noted: Homo sapiens, MYD88 mutant line, read-out: OCI-LY10 Viability, CTG IC50. The method, then:
Compound-mediated viability effect on OCI-LY10 or TMD8 was quantitatively determined using the CellTiter-Glo® Luminescent Cell Viability Assay kit from Promega (Catalog number G7570) following manufacturer's recommended procedures. Briefly, OCI-LY10 or TMD8 cells were seeded into 384 well plates (Grenier Bio-One, Catalog number 781080) with a density of 10,000 cells per well. Compounds were then added to the assay plate with final top concentration of 10 μM and 1:3 dilution series with total of 9 doses. The final DMSO concentration was normalized to 0.2%. The assay plates were incubated at 37° C. for 4 days under 5% CO2. Then the assay plate was equilibrated at room temperature for 10 minutes. To determine cell viability, 30 μL CellTiter Glo reagent was added to each well and the assay plate was centrifuged at 1000 rpm for 30 second, incubated at room temperature for 10 min, and analyzed by detecting the luminescence using a multimode plate reader (EnVision 2105, PerkinElmer). The data was then analyzed by software Prism 7.0 from GraphPad and the dose response curves were fit using a three-parameter logistic equation to calculate IC50.

Experiment [4] concerns SU-DHL2 cells (MYD88 mutant). As to the kind of experiment: Cell viability (CTG) with SU-DHL2. The conditions noted are these: Homo sapiens, SU-DHL-2; MYD88 mutant line.
For experiment [5], the system named is OCI-LY19 cells (MYD88 WT). As to the kind of experiment: Cell viability (CTG) with OCI-LY19. To be noted: Homo sapiens, MYD88 WT line.

Each structure is given as a SMILES string. Bounds are passed on as bounds.

`CC[C@@H]1CC(=O)N[C@@H]1COc1ncc(C#C[C@H]2CC[C@H](CN3CCC(OCCCc4cccc5c4n(C)c(=O)n5C4CCC(=O)NC4=O)CC3)CC2)c2cc(C(N)=O)c(OC)cc12` (some centres unmarked) [I-1]: the IC50 in experiment [1] is over 10 µM; in experiment [2] it was 4.1 µM; in experiment [3], 3.5 µM; in experiment [4], over 10 µM; in experiment [5], over 10 µM.

(Values after patent publication US20230089916A1, “IRAK DEGRADERS AND USES THEREOF” (Kymera Therapeutics, Inc., priority 2019, published 2023).)
